No end group written: not given here.
B1: recombinant antistasin: from the leech Haementaria officinalis, potent and specific inhibitor of factor Xa (protein, UniProt P15358 18-136, looked up)
Antistasin: QGPFGPGCEEAGCPEGSACNIITDRCTCSGVRCRMHCPHGFQRSRYGCEFCKCRLEPMKATCDISECPEGMMCSRLTNKCDCKIDINCRKTCPNGLKRDKLGCEYCECRPKRKLIPRLS

How the values were obtained:
[1] = tested on: restenosis following angioplasty; conditions: rabbits; cited from earlier work
[2] = tested on: collagen induced platelet aggregation; test: Platelet aggregation assay, collagen induced; assay type: cell-based, human; conditions: purified TTI
Procedure: (§1) Platelet Aggregation Assay. Blood from a healthy human volunteer was collected by venipuncture, anticoagulated with 1/10 volume of 0.08 M trisodium citrate, and centrifuged at 150 g for 10 min. The platelet rich plasma (PRP) was withdrawn and acidified to pH 6.4 using 0.15 M citric acid^15. The PRP was then centrifuged at 370 g for 20 min and the supernatant discarded. The platelet pellet was resuspended in Tyrodes solution (pH 7.4) with 3.13% wt/vol trisodium citrate and counted in a Coulter counter (Coulter Electronics, Hialeah, Fla.). The concentration of platelets was adjusted to 3×10^4 /μl prior to use.

[3] = tested on: ADP induced platelet aggregation; test: Platelet aggregation assay, ADP induced; assay type: cell-based, human; conditions: purified TTI
Procedure: as §1

thrombin = thrombin (Homo sapiens, UniProt P00734); test: Single stage chromogenic assay of thrombin inhibition (S-2238); assay type: biochemical; conditions: purified protein
Procedure: Thrombin Assays. A single stage chromogenic assay of thrombin inhibition was used to monitor SGE activity. 100 μl of thrombin, diluted to a concentration of 1 nM in 10 mM HEPES, pH 7.5 containing 0.1% bovine serum albumin and 150 mM NaCl (HBSA), was incubated with 50 µl of SGE, column fractions (diluted 1:1000 in HBSA), or purified TTI for 15 min at 25° C. in a 96 well microtiter plate. Following the addition of […], the initial rate (mOD/min) of substrate hydrolysis over 5 min was measured at 405 nm using a Vmax kinetic microplate reader (Molecular Devices, Palo Alto, Calif.). Results were expressed as percent inhibition of thrombin activity using the following formula:
Percent inhibition=1--(inhibited rate/uninhibited rate)×100

[4] = tested on: thrombin induced platelet aggregation; test: Platelet aggregation assay, thrombin induced; assay type: cell-based; conditions: washed human platelets; TTI 0, 0.001, 0.5, 1.0 nM; thrombin 0.2 NIH U/ml
Procedure: as §1
To determine the effect of TTI on thrombin induced aggregation, 200 μl of washed platelets were warmed to 37° C. in a Born multi-channel aggregometer in the presence of increasing concentrations of purified TTI. Aggregation was then recorded following the addition of 20 μl of thrombin (Boehringer-Mannheim, Indianapolis, Ind.) at a final concentration of 0.2 NIH U/ml. The aggregometer was calibrated to 100% light transmission, ie 0% aggregation, using Tyrodes solution.

| Molecule | reducing restenosis following angioplasty, compared with heparin [1] | effect on collagen induced aggregation [2] | effect on ADP induced aggregation [3] | inhibitory activity against thrombin (thrombin) | inhibition of platelet aggregation in response to thrombin [4] |
| --- | --- | --- | --- | --- | --- |
| tick anticoagulant peptide: from Ornithodoros moubata, potent and specific inhibitor of factor Xa (YNRLCIKPRDWIDECDSNEGGERAYFRNGKGGCDSFWICPEDHTGADYYSSYRDCFNACI; ends and bridges not checked; cysteine pairing not given here; UniProt P17726 1-60, looked up) [reference compound] | superior to heparin | – | – | – | – |
| TTI: low molecular weight polypeptide (about 3530 Da) purified from Glossina morsitans morsitans salivary glands; residues 19 to 50 of SEQ ID NO: 2 (GEPGAPIDYDEYGDSSEEVGGTPLHEIPGIRL) | – | no effect | no effect | potent, tight-binding inhibitor of thrombin | dose dependent inhibition of platelet aggregation |
| B1 | superior to heparin | – | – | – | – |

Source: patent US6036958A, “Tsetse thrombin inhibitor” (Yale University, priority 1999, dated 2000)
